# Measured values published in ChEMBL document CHEMBL3046389, “Synthesis and biological evaluation of novel hydroquinone dimethyl ethers as potential anticancer and antimicrobial agents” (2013).
# What was measured:
# Assay type in all cases: functional
# M14 [1] = assay: Anticancer activity against Homo sapiens (human) M14 cells after 48 hr by SRB assay; settings: M14, 48 h
# U-251 = assay: Anticancer activity against Homo sapiens (human) U251 cells after 48 hr by SRB assay; settings: U-251, 48 h; for CC50: read-out: LC50 (the source's name)
# BT-549 = assay: Growth inhibition of Homo sapiens (human) BT549 cells at 10 uM after 48 hr by SRB assay; settings: BT-549, 48 h, read-out: GI
# COLO 205 = assay: Anticancer activity against Homo sapiens (human) COLO205 cells after 48 hr by SRB assay; settings: COLO 205, 48 h; for CC50: read-out: LC50 (the source's name)
# T47D = assay: Growth inhibition of Homo sapiens (human) T47D cells at 10 uM after 48 hr by SRB assay; settings: read-out: GI
# HCT-15 = assay: Anticancer activity against Homo sapiens (human) HCT15 cells after 48 hr by SRB assay; settings: HCT-15, 48 h; for CC50: read-out: LC50 (the source's name)
# HT-29 = assay: Growth inhibition of Homo sapiens (human) HT-29 cells at 10 uM after 48 hr by SRB assay; settings: HT-29, 48 h, read-out: GI
# TK-10 = assay: Anticancer activity against Homo sapiens (human) TK10 cells after 48 hr by SRB assay; settings: TK-10, 48 h; for CC50: read-out: LC50 (the source's name)
# Malme-3M = assay: Growth inhibition of Homo sapiens (human) MALME-3M cells at 10 uM after 48 hr by SRB assay; settings: read-out: GI
# SN12C [2] = assay: Growth inhibition of Homo sapiens (human) SN12C cells at 10 uM after 48 hr by SRB assay; settings: read-out: GI
# Staphylococcus aureus = assay: Antimicrobial activity against Staphylococcus aureus DSM 1104 after 48 hr by two-fold serial broth dilution method; settings: DSM 1104, 48 h
# Hs-578T = assay: Growth inhibition of Homo sapiens (human) Hs 578T cells at 10 uM after 48 hr by SRB assay; settings: read-out: GI
# HL-60(TB) = assay: Growth inhibition of Homo sapiens (human) HL-60(TB) cells at 10 uM after 48 hr by SRB assay; settings: HL-60, 48 h, read-out: GI
# NCI/ADR-RES = assay: Anticancer activity against Homo sapiens (human) NCI/ADR-RES cells after 48 hr by SRB assay
# SW-620 = assay: Anticancer activity against Homo sapiens (human) SW620 cells after 48 hr by SRB assay; settings: SW-620, 48 h; for CC50: read-out: LC50 (the source's name)
# M14 [3] = assay: Growth inhibition of Homo sapiens (human) M14 cells at 10 uM after 48 hr by SRB assay; settings: M14, 48 h, read-out: GI
# SK-OV-3 = assay: Anticancer activity against Homo sapiens (human) SKOV3 cells after 48 hr by SRB assay; settings: SK-OV-3, 48 h
# EKVX = assay: Anticancer activity against Homo sapiens (human) EKVX cells after 48 hr by SRB assay; settings: for CC50: read-out: LC50 (the source's name)
# SF-295 = assay: Growth inhibition of Homo sapiens (human) SF295 cells at 10 uM after 48 hr by SRB assay; settings: SF-295, 48 h, read-out: GI
# RXF 393 = assay: Anticancer activity against Homo sapiens (human) RXF393 cells after 48 hr by SRB assay; settings: RXF 393, 48 h
# LOX IMVI = assay: Anticancer activity against Homo sapiens (human) LOXIMVI cells after 48 hr by SRB assay; settings: for CC50: read-out: LC50 (the source's name)
# KM12 = assay: Growth inhibition of Homo sapiens (human) KM12 cells at 10 uM after 48 hr by SRB assay; settings: KM12, 48 h, read-out: GI
# PC-3 [4] = assay: Anticancer activity against Homo sapiens (human) PC3 cells after 48 hr by SRB assay; settings: PC-3, 48 h; for CC50: read-out: LC50 (the source's name)
# RPMI-8226 = assay: Anticancer activity against Homo sapiens (human) RPMI8226 cells after 48 hr by SRB assay; settings: RPMI-8226, 48 h; for CC50: read-out: LC50 (the source's name)
# OVCAR-8 = assay: Anticancer activity against Homo sapiens (human) OVCAR8 cells after 48 hr by SRB assay; settings: OVCAR-8, 48 h
# OVCAR-5 = assay: Anticancer activity against Homo sapiens (human) OVCAR5 cells after 48 hr by SRB assay; settings: OVCAR-5, 48 h; for CC50: read-out: LC50 (the source's name)
# UACC-62 = assay: Growth inhibition of Homo sapiens (human) UACC62 cells at 10 uM after 48 hr by SRB assay; settings: UACC-62, 48 h, read-out: GI
# SN12C [5] = assay: Anticancer activity against Homo sapiens (human) SN12C cells after 48 hr by SRB assay
# HOP-62 = assay: Growth inhibition of Homo sapiens (human) HOP62 cells at 10 uM after 48 hr by SRB assay; settings: HOP-62, 48 h, read-out: GI
# Escherichia coli = assay: Antimicrobial activity against Escherichia coli ATCC 11775 after 48 hr by two-fold serial broth dilution method; settings: ATCC 11775, 48 h
# PC-3 [6] = assay: Growth inhibition of Homo sapiens (human) PC3 cells at 10 uM after 48 hr by SRB assay; settings: PC-3, 48 h, read-out: GI
# 786-0 = assay: Growth inhibition of Homo sapiens (human) 786-0 cells at 10 uM after 48 hr by SRB assay; settings: 786-0, 48 h, read-out: GI
# NCI-H322M = assay: Anticancer activity against Homo sapiens (human) NCI-H322M cells after 48 hr by SRB assay; settings: for CC50: read-out: LC50 (the source's name)
# SF-539 = assay: Anticancer activity against Homo sapiens (human) SF539 cells after 48 hr by SRB assay; settings: SF-539, 48 h; for CC50: read-out: LC50 (the source's name)
compound,measurement,setting,value
COc1ccc(OC)c(/C=C/C(=O)N/N=C/c2ccc(Cl)cc2)c1,GI50,M14 [1],0.0879 µM
same,LC50,M14 [1],> 100 µM
same,TGI,M14 [1],6.7 µM
same,GI50,U-251,0.184 µM
same,TGI,U-251,1.49 µM
same,CC50,U-251,> 100 µM
same,inhibition of growth at 10 µM,BT-549,36.5%
same,GI50,COLO 205,0.153 µM
same,TGI,COLO 205,0.595 µM
same,CC50,COLO 205,63.9 µM
same,inhibition of growth at 10 µM,T47D,70.5%
same,GI50,HCT-15,0.0835 µM
same,TGI,HCT-15,> 100 µM
same,CC50,HCT-15,> 100 µM
same,inhibition of growth at 10 µM,HT-29,93.5%
same,GI50,TK-10,0.691 µM
same,TGI,TK-10,> 100 µM
same,CC50,TK-10,> 100 µM
same,inhibition of growth at 10 µM,Malme-3M,45.9%
same,inhibition of growth at 10 µM,SN12C [2],53.8%
same,MBC,Staphylococcus aureus,100 µg/mL
same,MIC,Staphylococcus aureus,100 µg/mL
same,inhibition of growth at 10 µM,Hs-578T,102%
same,inhibition of growth at 10 µM,HL-60(TB),79.9%
same,GI50,NCI/ADR-RES,0.0391 µM
same,LC50,NCI/ADR-RES,90.6 µM
same,TGI,NCI/ADR-RES,0.233 µM
same,GI50,SW-620,0.0813 µM
same,TGI,SW-620,> 100 µM
same,CC50,SW-620,> 100 µM
same,inhibition of growth at 10 µM,M14 [3],134%
same,GI50,SK-OV-3,0.149 µM
same,LC50,SK-OV-3,> 100 µM
same,TGI,SK-OV-3,13.9 µM
same,GI50,EKVX,0.816 µM
same,TGI,EKVX,> 100 µM
same,CC50,EKVX,> 100 µM
same,inhibition of growth at 10 µM,SF-295,68.2%
same,GI50,RXF 393,0.0469 µM
same,LC50,RXF 393,> 100 µM
same,TGI,RXF 393,0.298 µM
same,GI50,LOX IMVI,0.254 µM
same,TGI,LOX IMVI,> 100 µM
same,CC50,LOX IMVI,> 100 µM
same,inhibition of growth at 10 µM,KM12,82%
same,GI50,PC-3 [4],0.169 µM
same,TGI,PC-3 [4],> 100 µM
same,CC50,PC-3 [4],> 100 µM
same,GI50,RPMI-8226,0.3 µM
same,TGI,RPMI-8226,15.7 µM
same,CC50,RPMI-8226,> 100 µM
same,GI50,OVCAR-8,0.35 µM
same,LC50,OVCAR-8,> 100 µM
same,TGI,OVCAR-8,> 100 µM
same,GI50,OVCAR-5,10.9 µM
same,TGI,OVCAR-5,> 100 µM
same,CC50,OVCAR-5,> 100 µM
same,inhibition of growth at 10 µM,UACC-62,57.9%
same,GI50,SN12C [5],0.982 µM
same,LC50,SN12C [5],> 100 µM
same,TGI,SN12C [5],> 100 µM
same,inhibition of growth at 10 µM,HOP-62,62.1%
same,MBC,Escherichia coli,100 µg/mL
same,MIC,Escherichia coli,50 µg/mL
same,inhibition of growth at 10 µM,PC-3 [6],73.8%
same,inhibition of growth at 10 µM,786-0,83.3%
same,GI50,NCI-H322M,0.666 µM
same,TGI,NCI-H322M,> 100 µM
same,CC50,NCI-H322M,> 100 µM
same,GI50,SF-539,0.258 µM
same,TGI,SF-539,3.16 µM
same,CC50,SF-539,> 100 µM
COc1ccc(OC)c(/C=C/C(=O)N/N=C/c2ccccc2)c1,GI50,M14 [1],2.16 µM
same,LC50,M14 [1],> 100 µM
same,TGI,M14 [1],6.77 µM
same,GI50,U-251,3.68 µM
same,TGI,U-251,> 100 µM
same,CC50,U-251,> 100 µM
same,inhibition of growth at 10 µM,BT-549,39.2%
same,GI50,COLO 205,4.8 µM
same,TGI,COLO 205,35.1 µM
same,CC50,COLO 205,> 100 µM
same,inhibition of growth at 10 µM,T47D,60.3%
same,GI50,HCT-15,3.62 µM
same,TGI,HCT-15,> 100 µM
same,CC50,HCT-15,> 100 µM
same,inhibition of growth at 10 µM,HT-29,79.3%
same,GI50,TK-10,16.6 µM
same,TGI,TK-10,> 100 µM
same,CC50,TK-10,> 100 µM
same,inhibition of growth at 10 µM,Malme-3M,41%
same,inhibition of growth at 10 µM,SN12C [2],47.9%
same,MBC,Staphylococcus aureus,100 µg/mL
same,MIC,Staphylococcus aureus,100 µg/mL
same,inhibition of growth at 10 µM,Hs-578T,33.5%
same,inhibition of growth at 10 µM,HL-60(TB),53.6%
same,GI50,NCI/ADR-RES,1.46 µM
same,LC50,NCI/ADR-RES,> 100 µM
same,TGI,NCI/ADR-RES,4.29 µM
same,GI50,SW-620,1.5 µM
same,TGI,SW-620,6.23 µM
same,CC50,SW-620,> 100 µM
same,inhibition of growth at 10 µM,M14 [3],72.2%
same,GI50,SK-OV-3,12 µM
same,LC50,SK-OV-3,> 100 µM
same,TGI,SK-OV-3,> 100 µM
same,GI50,EKVX,1.59 µM
same,TGI,EKVX,59.5 µM
same,CC50,EKVX,> 100 µM
same,inhibition of growth at 10 µM,SF-295,51.5%
same,GI50,RXF 393,3.9 µM
same,LC50,RXF 393,> 100 µM
same,TGI,RXF 393,26.6 µM
same,GI50,LOX IMVI,4.11 µM
same,TGI,LOX IMVI,> 100 µM
same,CC50,LOX IMVI,> 100 µM
same,inhibition of growth at 10 µM,KM12,69%
same,GI50,PC-3 [4],5.86 µM
same,TGI,PC-3 [4],52.1 µM
same,CC50,PC-3 [4],> 100 µM
same,GI50,RPMI-8226,2.99 µM
same,TGI,RPMI-8226,9.96 µM
same,CC50,RPMI-8226,> 100 µM
same,GI50,OVCAR-8,5.44 µM
same,LC50,OVCAR-8,> 100 µM
same,TGI,OVCAR-8,94.6 µM
same,GI50,OVCAR-5,18 µM
same,TGI,OVCAR-5,> 100 µM
same,CC50,OVCAR-5,> 100 µM
same,inhibition of growth at 10 µM,UACC-62,39%
same,GI50,SN12C [5],4.17 µM
same,LC50,SN12C [5],> 100 µM
same,TGI,SN12C [5],39.9 µM
same,inhibition of growth at 10 µM,HOP-62,32.7%
same,MBC,Escherichia coli,50 µg/mL
same,MIC,Escherichia coli,50 µg/mL
same,inhibition of growth at 10 µM,PC-3 [6],36.5%
same,inhibition of growth at 10 µM,786-0,45.7%
same,GI50,NCI-H322M,5.22 µM
same,TGI,NCI-H322M,> 100 µM
same,CC50,NCI-H322M,> 100 µM
same,GI50,SF-539,4.42 µM
same,TGI,SF-539,25.1 µM
same,CC50,SF-539,> 100 µM
